Reference: patent publication US7122173B2, “Agent for the treatment of bladder irritative symptoms accompanied by benign prostatic hyperplasia” (Kyowa Hakko Kogyo Co., Ltd., priority 2001, dated 2006)

System: delayed rectifier K^+ channel
Experiment: Voltage clamp, delayed rectifier K+ currents (HP −20 mV) in unidentified DRG neurons
Format: cell-based, rat
Settings: for K+ current HP: −20 mV (delayed rectifier), relative value (before drug = 1): unidentified DRG neurons
Protocol: Experiments were performed on adult female Sprague Dawley rats. First and second series of the experiments were performed, respectively, in unidentified DRG neurons and a specific population of DRG neurons innervating the urinary bladder. The population of DRG neurons that innervate the urinary bladder were labeled by retrograde axonal transport of the fluorescent dye, Fast Blue (4% w/v) (Polyloy, Gross Umstadt, Germany), injected into the wall of the bladder in halothane-anesthetized animals 7 days before the dissociation. The dye was injected with a 28 gauge needle at three to six sites on the dorsal surface of the organ (5–6 μL per site, total volume of 20–30 μL). Each injection site was washed with saline to minimize contamination of adjacent organs with the dye.
Freshly dissociated neurons from DRG were prepared from halothane-anesthetized animals. L6 and S1 DRG were dissected from animals and then dissociated in a shaking bath for 25 minutes at 35° C. with 5 mL DMEM (Sigma) containing 0.3 mg/mL trypsin (Type 3, Sigma), 1 mg/mL collagenase (Type 1, Sigma), and 0.1 mg/mL deoxyribonuclease (Type 4, Sigma). Trypsin inhibitor (Type 2a, Sigma) was then added thereto to neutralize the activity of trypsin. Individual DRG cell bodies were isolated by trituration and then plated on a poly-L-lysine-coated 35 mm Petri dishes.
Dye-labeled primary afferent neurons that innervate the urinary bladder were identified using an inverted phase-contrast microscope (Nikon, Tokyo, Japan) with fluorescent attachments (UV-1A filter; excitation wavelength, 365 nm). Gigaohm-seal whole-cell recordings were performed at room temperature (20–22° C.) on each labeled neuron in a culture dish that usually contained three to seven labeled cells among a few hundred unlabeled neurons. The internal solution contained (in mmol/L): KCl 140, CaCl2 1, MgCl2 2, EGTA 11, HEPES 10, Mg-ATP 2, and Tris-GTP 0.4 adjusted to pH 7.4 with KOH. Patch electrodes had resistances of 1–4 M Ω when filled with the internal solution. Neurons were superfused at a flow rate of 1.5 mL/minutes with an external solution containing (in mmol/L): NaCl 150, KCl 5, CaCl2 2.5, MgCl2 1, HEPES 10, and D-glucose 10, adjusted to pH 7.4 with NaOH. All recordings were made with an Axopatch-1D patch-clamp amplifier (Axon Instruments, Foster City, Calif.), and data were acquired and analyzed by PCLAMP software (Axon Instruments).
In voltage-clamp recordings, outward K^+ currents and inward Na^+ currents were measured. For the isolation of K^+ currents, the external solution was changed to one containing (in mmol/L): choline-Cl 150, KOH 5, CaCl2 0.03, HEPES 10, Mg(OH)2 3, and D-glucose 10, adjusted to pH 7.4 with HCl.
In first series of experiments using unidentified DRG neurons, outward K^+ currents were evoked by voltage steps to +60 mV, 800 ms long from a holding potentials of −90 mV, this was followed by a 1-second conditioning pre-pulse to −20 mV followed by a second pulse to +60 mV, identical to the first in the sequence. In the second series of experiments using Fast Blue-labeled bladder afferent neurons, slowly-inactivating A-type K^+ currents were isolated by subtraction of outward K^+ currents activated from a holding potential of −40 mV (on the condition of inactivation of the majority of slowly-inactivating A-type K^+ currents) from those activated from a holding potential of −120 mV (on the condition of full activation of slowly-inactivating A-type K^+ currents). A compound was added cumulatively, starting with a lower concentration. Currents were measured at the maximum (peak) and normalized to control (before addition of the compound).
The currents at a holding potential (HP) of −90 mV are results of the measurement of slowly-inactivating A-type K^+ currents, and the currents at an HP value of −20 mV are results of the measurement of delayed rectifier K^+ currents. […]

Q: Which results are given for `C[C@](O)(C(=O)Nc1cccc2c1C(=O)c1sccc1CS2(=O)=O)C(F)(F)F` [Compound 1, (S)-(+)-N-(5,5-dioxido-10-oxo-4,10-dihydrothieno[3,2-c][1]benzothiepin-9-yl)-3,3,3-trifluoro-2-hydroxy-2-methylpropanamide]?
A: K+ current HP: −20 mV, relative value (before drug = 1) (Compound 1 1.0 × 10^−5 mol/L, in the presence of 5 μmol/L verapamil): 1.00 ± 0.02; K+ current HP: −20 mV, relative value (before drug = 1) (Compound 1 1.0 × 10^−5 mol/L, in the presence of 20 mmol/L tetraethylammonium): 1.01 ± 0.02; K+ current HP: −20 mV (delayed rectifier), relative value (before drug = 1) (Compound 1 1.0 × 10^−5 mol/L): 0.88 ± 0.07; K+ current HP: −20 mV, relative value (before drug = 1) (Compound 1 1.0 × 10^−6 mol/L, in the presence of 5 μmol/L verapamil): 1.00 ± 0.01; K+ current HP: −20 mV, relative value (before drug = 1) (Compound 1 1.0 × 10^−6 mol/L, in the presence of 20 mmol/L tetraethylammonium): 1.00 ± 0.00; K+ current HP: −20 mV (delayed rectifier), relative value (before drug = 1) (Compound 1 1.0 × 10^−6 mol/L): 1.00 ± 0.02; K+ current HP: −20 mV, relative value (before drug = 1) (Compound 1 1.0 × 10^−7 mol/L, in the presence of 5 μmol/L verapamil): 1.00 ± 0.01; K+ current HP: −20 mV, relative value (before drug = 1) (Compound 1 1.0 × 10^−7 mol/L, in the presence of 20 mmol/L tetraethylammonium): 0.99 ± 0.02; K+ current HP: −20 mV (delayed rectifier), relative value (before drug = 1) (Compound 1 1.0 × 10^−7 mol/L): 1.02 ± 0.01; K+ current HP: −20 mV (delayed rectifier), relative value (before drug = 1) (Compound 1 1.0 × 10^−8 mol/L): 0.98 ± 0.04; K+ current HP: −20 mV (delayed rectifier), relative value (before drug = 1) (Compound 1 2.5 × 10^−8 mol/L): 1.01 ± 0.03; K+ current HP: −20 mV, relative value (before drug = 1) (Compound 1 5.0 × 10^−4 mol/L, in the presence of 5 μmol/L verapamil): 0.83 ± 0.06; K+ current HP: −20 mV, relative value (before drug = 1) (Compound 1 5.0 × 10^−4 mol/L, in the presence of 20 mmol/L tetraethylammonium): 0.25 ± 0.04; K+ current HP: −20 mV, relative value (before drug = 1) (Compound 1 5.0 × 10^−4 mol/L, in the presence of 60 mmol/L tetraethylammonium): 0.54 ± 0.02; K+ current HP: −20 mV, relative value (before drug = 1) (Compound 1 5.0 × 10^−5 mol/L, in the presence of 5 μmol/L verapamil): 0.98 ± 0.01; K+ current HP: −20 mV, relative value (before drug = 1) (Compound 1 5.0 × 10^−5 mol/L, in the presence of 20 mmol/L tetraethylammonium): 0.84 ± 0.06; K+ current HP: −20 mV, relative value (before drug = 1) (Compound 1 5.0 × 10^−5 mol/L, in the presence of 60 mmol/L tetraethylammonium): 0.95 ± 0.03; K+ current HP: −20 mV (delayed rectifier), relative value (before drug = 1) (Compound 1 5.0 × 10^−5 mol/L): 0.81 ± 0.08; K+ current HP: −20 mV, relative value (before drug = 1) (Compound 1 5.0 × 10^−6 mol/L, in the presence of 5 μmol/L verapamil): 1.01 ± 0.01; K+ current HP: −20 mV, relative value (before drug = 1) (Compound 1 5.0 × 10^−6 mol/L, in the presence of 20 mmol/L tetraethylammonium): 0.98 ± 0.01; K+ current HP: −20 mV, relative value (before drug = 1) (Compound 1 5.0 × 10^−6 mol/L, in the presence of 60 mmol/L tetraethylammonium): 0.97 ± 0.02; K+ current HP: −20 mV, relative value (before drug = 1) (Compound 1 5.0 × 10^−7 mol/L, in the presence of 5 μmol/L verapamil): 1.00 ± 0.01; K+ current HP: −20 mV, relative value (before drug = 1) (Compound 1 5.0 × 10^−7 mol/L, in the presence of 20 mmol/L tetraethylammonium): 1.01 ± 0.01; K+ current HP: −20 mV, relative value (before drug = 1) (Compound 1 5.0 × 10^−7 mol/L, in the presence of 60 mmol/L tetraethylammonium): 0.97 ± 0.03; K+ current HP: −20 mV (delayed rectifier), relative value (before drug = 1) (Compound 1 5.0 × 10^−7 mol/L): 1.01 ± 0.02; K+ current HP: −20 mV, relative value (before drug = 1) (Compound 1 5.0 × 10^−8 mol/L, in the presence of 5 μmol/L verapamil): 1.00 ± 0.00; K+ current HP: −20 mV, relative value (before drug = 1) (Compound 1 5.0 × 10^−8 mol/L, in the presence of 20 mmol/L tetraethylammonium): 0.99 ± 0.01; K+ current HP: −20 mV, relative value (before drug = 1) (Compound 1 5.0 × 10^−8 mol/L, in the presence of 60 mmol/L tetraethylammonium): 1.00 ± 0.01; K+ current HP: −20 mV (delayed rectifier), relative value (before drug = 1) (Compound 1 5.0 × 10^−8 mol/L): 1.00 ± 0.01; K+ current HP: −20 mV, relative value (before drug = 1) (Compound 1 5.0 × 10^−9 mol/L, in the presence of 20 mmol/L tetraethylammonium): 0.99 ± 0.00; K+ current HP: −20 mV (delayed rectifier), relative value (before drug = 1) (Compound 1 5.0 × 10^−9 mol/L): 0.98 ± 0.02
